System: ovarian cancer patients (UAB cohort)
Experiment: Kaplan-Meier recurrence curves, University of Alabama at Birmingham (UAB) ovarian cancer cohort, patients classified by TLE3 antibody staining
Assay type: in vivo, human
Settings: all patients received paclitaxel, most also platinum chemotherapy (carboplatin or cisplatin)
Text: All patients received paclitaxel. Most patients also received platinum chemotherapy (carboplatin or cisplatin). Recurrence data from TLE3-positive and TLE3-negative patients in this subset were used to generate the top and bottom curves, respectively. As shown in the Figure, antibody binding to the TLE3 marker correlated with prognosis in these treated patients (HR=0.64, p<0.049).
Kaplan-Meier recurrence curves that were generated using patients in the RP breast cancer cohort that received chemotherapy are consistent with this prediction model (see FIG. 6, HR=0.194, p=0.010). Kaplan-Meier recurrence curves that were generated using patients in the UAB ovarian cancer cohort that received chemotherapy are also consistent with this prediction model (see FIG. 18, HR=0.64, p=0.049).

CC(=O)O[C@H]1C(=O)[C@@]2(C)[C@H]([C@H](OC(=O)c3ccccc3)[C@]3(O)C[C@H](OC(=O)[C@H](O)[C@@H](NC(=O)c4ccccc4)c4ccccc4)C(C)=C1C3(C)C)[C@]1(OC(C)=O)CO[C@@H]1C[C@@H]2O [paclitaxel]
HR (recurrence, TLE3-positive vs TLE3-negative patients): 0.64

— patent US8785156B2, “TLE3 as a marker for chemotherapy” (Clarient Diagnostic Services, Inc., priority 2007, dated 2014)
